Source: US10184115B2, “Mutated cellobiose dehydrogenase with increased substrate specificity” (DIRECTSENS GMBH, priority 2012, dated 2019)

Target: T1, Corynascus thermophilus cellobiose dehydrogenase (CDH), recombinant wild type, SEQ ID NO: 7 (Thermothelomyces fergusii, UniProt E7D6B9)
T1 sequence (E7D6B9 24-787): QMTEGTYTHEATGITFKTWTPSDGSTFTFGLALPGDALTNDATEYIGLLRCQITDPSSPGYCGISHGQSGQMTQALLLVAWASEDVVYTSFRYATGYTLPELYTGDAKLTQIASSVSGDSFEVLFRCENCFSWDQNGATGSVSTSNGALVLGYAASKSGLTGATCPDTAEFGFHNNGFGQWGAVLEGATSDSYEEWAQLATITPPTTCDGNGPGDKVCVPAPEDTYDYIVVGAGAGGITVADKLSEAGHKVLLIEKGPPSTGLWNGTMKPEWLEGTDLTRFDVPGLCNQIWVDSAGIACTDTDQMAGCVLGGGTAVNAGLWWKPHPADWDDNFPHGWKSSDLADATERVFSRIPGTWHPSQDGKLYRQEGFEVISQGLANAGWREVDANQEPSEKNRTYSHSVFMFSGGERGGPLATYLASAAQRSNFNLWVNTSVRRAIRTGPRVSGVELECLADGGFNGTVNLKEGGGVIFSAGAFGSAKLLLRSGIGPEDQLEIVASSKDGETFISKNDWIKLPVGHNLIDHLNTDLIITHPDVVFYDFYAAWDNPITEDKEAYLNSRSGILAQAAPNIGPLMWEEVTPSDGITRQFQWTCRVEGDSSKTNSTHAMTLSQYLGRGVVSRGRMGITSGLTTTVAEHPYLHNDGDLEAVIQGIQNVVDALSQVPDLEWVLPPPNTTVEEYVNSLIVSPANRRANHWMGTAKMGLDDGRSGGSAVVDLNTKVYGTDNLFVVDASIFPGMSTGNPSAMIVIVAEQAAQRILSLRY
Assay: Steady-state kinetics, DCIP assay: C. thermophilus CDH wt
Settings: apparent, pH 5.5, 30° C.
Procedure: Enzyme activity was assayed at 30° C. using either the DCIP (Karapetyan et al., 2005 Journal of Biotechnology 121: 34-48) or cytochrome c (Canevascini et al., 1991, European Journal of Biochemistry 198: 43-52) as electron acceptor. […] Stock solutions of carbohydrates used for kinetic measurements were prepared in the respective buffer and allowed to stand overnight for mutarotation, while stock solutions of electron acceptors were prepared in water and immediately used. The reaction stoichiometry is 1 for the two-electron acceptor DCIP (1 mole of DCIP reduced per mole of carbohydrate oxidized), but 2 for the one-electron acceptor cytochrome c. Kinetic constants were calculated by fitting the observed data to the Henri-Michaelis-Menten equation or to the adapted model for substrate inhibition using nonlinear least-squares regression and the program SigmaPlot (Systat Software, San Jose, Calif., USA). […]
Recombinant wild-type CDH as well as variants were produced in 1 L baffled flasks. […] Increase in activity was monitored using the DCIP and the cytochrome c enzyme assays. […]
The sample was loaded on a 20 mL PHE Sepharose FF column (HR26/20) equilibrated with 50 mM Na-acetate buffer pH 5.5 containing 20% ammonium sulfate. […] Fractions were tested for CDH activity and pooled according to the highest Reinheitszahl (RZ, calculated from the absorbance ratio 420 nm/280 nm). […]

OC[C@H]1OC(O)[C@H](O)[C@@H](O)[C@@H]1O (some centres unmarked) [Glucose, glucose]
kcat: 4.09 s⁻¹
kcat/KM: 170 M⁻¹ s⁻¹
